The values below come from patent publication US8980881B2, “Crystalline forms of (R)-8-chloro-1-methyl-2,3,4,5-tetrahydro-1H-3-benzazepine hydrochloride” (priority 2004, dated 2015).

“Also recorded” adds a separate entry of the source. Structures can show the parent of a compound that is named as a salt.

Series [1] is described as follows: Dynamic vapor sorption (DVS) scan, with XRPD after the cycle. In kind it is physicochemical. As to conditions: for crystalline form after DVS cycle: XRPD after the DVS cycle; for moisture adsorbed: between about 40 and about 80% RH, calculated from DVS; for DVS: adsorbs (moisture) / DVS: adsorption transition at / DVS: deliquescent above / DVS: hygroscopicity: dynamic vapor sorption. From the text:
FIG. 4 depicts a dynamic vapor sorption (DVS) scan for crystalline Form I of the invention (VTI dynamic vapor desorption analyzer).
FIG. 8 depicts a dynamic vapor sorption (DVS) scan for crystalline Form II of the invention (VTI dynamic vapor desorption analyzer).
FIG. 12 depicts a dynamic vapor sorption (DVS) scan for crystalline Form III of the invention.
The various crystalline forms of (R)-8-chloro-1-methyl-2,3,4,5-tetrahydro-1H-3-benzazepine hydrochloride can be identified by their unique solid state signatures with respect to, for example, differential scanning calorimetry (DSC), X-ray powder diffraction (XRPD), and other solid state methods. Further characterization with respect to water or solvent content of the crystalline forms can be gauged by any of various routine methods such as thermogravimetric analysis (TGA), dynamic vapor sorption (DVS), DSC and other techniques. For DSC, it is known that the temperatures observed will depend upon the rate of temperature change as well as sample preparation technique and the particular instrument employed. Thus, the values reported herein relating to DSC thermograms can vary by plus or minus about 4° C. For XRPD, the relative intensities of the peaks can vary, depending upon the sample preparation technique, the sample mounting procedure and the particular instrument employed. Moreover, instrument variation and other factors can often affect the 2-theta values. Therefore, the peak assignments of diffraction patterns can vary by plus or minus about 0.2°.
XRPD carried out on both Forms I and II after the DVS cycle confirmed this conversion.

A short description of series [2]: Heat stability of crystalline form, XRPD analysis after heating. In kind it is physicochemical. The procedure: A sample of Form I was heated to 160° C. in a TGA furnace for about 15 min when heated at a rate of about 10° C./min.
A sample of Form III was heated to 60° C. for at least 2 hours.
A sample of Form III was heated to 60° C. for one day.
A sample of Form III was heated to 80° C. for 30 minutes.
A sample of Form III was heated to 80° C. for 1 day.

Regarding `C[C@H]1CNCCc2ccc(Cl)cc21` [Form I, (R)-8-chloro-1-methyl-2,3,4,5-tetrahydro-1H-3-benzazepine hydrochloride], in series [1] (hydrochloride), the “crystalline form after DVS cycle” value is listed as “conversion to the hemihydrate (Form III); also recorded: crystalline form changes”, the “DVS: adsorption transition at” value is recorded as “about 60% RH;”, the “DVS: deliquescent above” value is “deliquescent above 90% RH” and the “DVS: hygroscopicity” value was “hygroscopic; also recorded: hygroscopic;”. Also, in series [1], the moisture adsorbed entry is recorded as “about 3.8 wt %”, the “DVS: adsorbs (moisture)” value is on record as “adsorbs about 3.8 wt %;” and the “conversion upon exposure to moisture” value is recorded as “readily convert to Form III”. The “crystal form after heating (XRPD)” value in series [2] (heated to 160° C. in a TGA furnace for about 15 min, about 10° C./min) is reported as “no change in crystal form”.

Regarding `C[C@H]1CNCCc2ccc(Cl)cc21` [Form II, (R)-8-chloro-1-methyl-2,3,4,5-tetrahydro-1H-3-benzazepine hydrochloride], in series [1] (hydrochloride), the “crystalline form after DVS cycle” value is listed as “conversion to the hemihydrate (Form III); also recorded: crystalline form changes”, the “DVS: adsorption transition at” value is reported as “about 40% RH;”, the “DVS: deliquescent above” value is given as “deliquescent above 90% RH” and the “DVS: hygroscopicity” value is “hygroscopic; also recorded: hygroscopic;”. In series [1], the moisture adsorbed entry is recorded as “about 3.8 wt %”, the “DVS: adsorbs (moisture)” value is on record as “adsorbs about 3.8 wt %;” and the “conversion upon exposure to moisture” value is on record as “readily convert to Form III”.

On to `C[C@H]1CNCCc2ccc(Cl)cc21` [Form III, (R)-8-chloro-1-methyl-2,3,4,5-tetrahydro-1H-3-benzazepine hydrochloride Hemihydrate], for which, in series [1] (hydrochloride Hemihydrate), the “crystalline form after DVS cycle” value is “no change in crystalline form”, the “DVS: deliquescent above” value is “deliquescent above 95% RH;” and the “DVS: hygroscopicity” value is given as “substantially non-hygroscopic”. Besides, in series [1] (at 90% RH), the “DVS: adsorption at 90% RH” value is “adsorption of less than 0.5%” and the water adsorbed entry was “less than 0.5 wt %”. For the same compound, in series [2] (heated to 60° C. for at least 2 hours), the “crystal form after heating (XRPD)” value is reported as “substantially no change in crystal form”. For the same compound, the “crystal form after heating (XRPD)” value in series [2] (heated to 60° C. for one day) is recorded as “partial conversion to Form I”. In series [2] (heated to 80° C. for 30 minutes), the “crystal form after heating (XRPD)” value was “partial conversion to Form I”. For the same compound, the “crystal form after heating (XRPD)” value in series [2] (heated to 80° C. for 1 day) was “partial conversion to Form I”.
